Laboratory results as given in paper PMC10255569, “Discovery of Peptidic Ligands against the SARS-CoV-2 Spike Protein and Their Use in the Development of a Highly Sensitive Personal Use Colorimetric COVID-19 Biosensor” (ACS Sensors, 2023).
Non-standard residues stand in square brackets, D forms with d. Residues, ends and D or L forms follow the SMILES beside them. *: point of attachment. Biotin = O=C1N[C@H]2[C@H](CS[C@H]2CCCCC(=O)*)N1; Phe(3,5-F2) = N[C@@H](Cc1cc(F)cc(F)c1)C(=O)O; hCit = NC(=O)NCCCC[C@H](N)C(=O)O; Aad = N[C@@H](CCCC(=O)O)C(=O)O; dPhg = N[C@@H](C(=O)O)c1ccccc1; Nva = CCC[C@H](N)C(=O)O; AEEA = NCCOCCOCC(=O)O; Ac3c = NC1(C(=O)O)CC1

Tested on: SARS-CoV-2 spike protein active trimer
Type: binding

For COc1ccc(C[C@H](NC(=O)[C@H](N)Cc2c[nH]cn2)C(=O)N[C@@H](CCCNC(=N)N)C(=O)N[C@@H](C(=O)N[C@H](CCC(=O)O)C(=O)N[C@H](Cc2c[nH]cn2)C(=O)N[C@H](CCSC)C(=O)N[C@@H](CC(C)C)C(=O)NCCOCCOCC(=O)NCCOCCOCC(=O)N[C@@H](CCCCNC(=O)CCCC[C@@H]2SC[C@@H]3NC(=O)N[C@@H]32)C(N)=O)c2ccccc2)cc1 [L9-1] (H-[dH]Y(Me)R[dPhg][dE][dH][dM]L[AEEA][AEEA]K(Biotin)-NH2), the “binding to the S-protein active trimer (in words)” value (“binding … (in words)” below) was “bind reasonably well”.
In the case of CCC[C@H](NC(=O)[C@H](CCCCNC(N)=O)NC(=O)[C@H](CCCNC(=N)N)NC(=O)[C@H](Cc1ccc(OC)cc1)NC(=O)[C@H](N)Cc1c[nH]cn1)C(=O)N[C@@H](CCCNC(=N)N)C(=O)N[C@@H](Cc1cc(F)cc(F)c1)C(=O)N[C@@H](Cc1ccccc1)C(=O)N[C@@H](CCCC(=O)O)C(=O)NCCOCCOCC(=O)NCCOCCOCC(=O)N[C@@H](CCCCNC(=O)CCCC[C@@H]1SC[C@@H]2NC(=O)N[C@@H]21)C(N)=O [L10-2] (H-[dH]Y(Me)R[hCit][Nva]R[Phe(3,5-F2)]F[Aad][AEEA][AEEA]K(Biotin)-NH2), the Kd is reported as 25 nM, the “binding affinity, times higher than CoV6-2” value is reported as 8 times and the “binding affinity, times stronger than the 13-mer reference peptide” value is reported as about 3 times. For the same compound, the “binding … (in words)” value was “bind reasonably well”.
For CCC[C@H](NC(=O)[C@H](CCC(N)=O)NC(=O)[C@@H](N)Cc1cc(F)cc(F)c1)C(=O)N[C@@H](CCCNC(=N)N)C(=O)N[C@H](CC(N)=O)C(=O)N[C@@H](CCC)C(=O)N[C@H](CC(N)=O)C(=O)NC1(C(=O)NCCOCCOCC(=O)NCCOCCOCC(=O)N[C@@H](CCCCNC(=O)CCCC[C@@H]2SC[C@@H]3NC(=O)N[C@@H]32)C(N)=O)CC1 [L10-3] (H-[Phe(3,5-F2)]Q[Nva]R[dN][Nva][dN][Ac3c][AEEA][AEEA]K(Biotin)-NH2), the “binding … (in words)” value was “bind reasonably well”.
CCC[C@H](NC(=O)[C@H](CCCCNC(N)=O)NC(=O)[C@H](Cc1ccc(OC)cc1)NC(=O)[C@H](N)Cc1c[nH]cn1)C(=O)N[C@@H](CCCNC(=N)N)C(=O)N[C@@H](Cc1cc(F)cc(F)c1)C(=O)N[C@@H](Cc1ccccc1)C(=O)N[C@@H](CCCC(=O)O)C(=O)NCCOCCOCC(=O)NCCOCCOCC(=O)N[C@@H](CCCCNC(=O)CCCC[C@@H]1SC[C@@H]2NC(=O)N[C@@H]21)C(N)=O [L10-4] (H-[dH]Y(Me)[hCit][Nva]R[Phe(3,5-F2)]F[Aad][AEEA][AEEA]K(Biotin)-NH2) was tested, and the “binding … (in words)” value was “bind reasonably well”.
Work on CC(C)C[C@H](NC(=O)CNC(=O)[C@H](Cc1ccccc1)NC(=O)[C@@H](NC(=O)[C@@H](N)[C@@H](C)O)C(C)C)C(=O)N[C@@H](CC(N)=O)C(=O)N[C@H](C(=O)N[C@@H](Cc1c[nH]c2ccccc12)C(=O)N[C@@H](CCCCN)C(=O)N[C@@H](CCCNC(=N)N)C(=O)N[C@@H](Cc1ccc(O)cc1)C(=O)N[C@@H](CO)C(=O)N[C@@H](CCCCN)C(=O)NCCOCCOCC(=O)NCCOCCOCC(=O)N[C@@H](CCCCNC(=O)CCCC[C@@H]1SC[C@@H]2NC(=O)N[C@@H]21)C(N)=O)C(C)C [Reference Peptide, reference compound] (H-TVFGLNVWKRYSK[AEEA][AEEA]K(Biotin)-NH2) yielded a Kd of 79 nM.
